For two compounds, Activity results are on record in ChEMBL document CHEMBL4342470, “Detection of Active Granzyme A in NK92 Cells with Fluorescent Activity-Based Probe” (J Med Chem, 2020).

What all share (format): cell-based
What all share (settings): mda-mb-231, 24 h

The subject of data set [1] is MDA-MB-231. Nature of the data set: Toxicity in human MDA-MB-231 cells assessed as reduction in cell viability at 10 uM incubated for 24 hrs by MTS assay. Background: Formazan colour is commonly taken as a measure of viable cells.
The subject of data set [2] is MDA-MB-231. Nature of the data set: Toxicity in human MDA-MB-231 cells assessed as reduction in cell viability at >1 uM incubated for 24 hrs by MTS assay.
Data set [3] deals with MDA-MB-231. As to the kind of experiment: Toxicity in human MDA-MB-231 cells assessed as reduction in cell viability at <1 uM incubated for 24 hrs by MTS assay.

For `COC(=O)CCC(=O)N1Cc2ccccc2C[C@H]1C(=O)NCC(=O)N1C2CCCCC2C[C@H]1C(=O)NC(CCCNC(=N)N)P(=O)(Oc1ccccc1)Oc1ccccc1` (stereo partly drawn), in the data set with MDA-MB-231 [1], the Activity result was “Non-Toxic”.
Take `CN1\C(=C/C=C/C=C/C2N(CCCCCC(=O)NCCCCCC(=O)N3Cc4ccccc4C[C@H]3C(=O)NCC(=O)N3C4CCCCC4C[C@H]3C(=O)NC(CCCNC(=N)N)P(=O)(Oc3ccccc3)Oc3ccccc3)c3ccccc3C2(C)C)C(C)(C)c2ccccc21` (stereo partly drawn): the Activity result in the data set with MDA-MB-231 [2] is recorded as “Toxic”; with MDA-MB-231 [3] it was “Non-Toxic”.
